{
  "source": "patent EP0277849A1",
  "about": "“Incorporation of one or more lipophilic, active principles into lipoproteins, lipoproteins obtained and pharmaceutical compositions containing them” (IRE-CELLTARG S.A., priority 1987, dated 1988)",
  "key": {"[1]": {"test": "Incorporation of antifungal agent into LDL by NaDoc dissociation-reconstitution", "type": "physicochemical", "settings": "1,6 mg LDL, 482 µg of agent, dialysis", "protocol": "On ajoute à 1,6 mg de LDL préalablement dialysées contre le tampon C, 10 mg de NaDoc solide et on laisse réagir 30 minutes à température ambiante. On ajoute à la préparation 2,8 ml d'une solution NaDoc 20 mM, Na2COs 50 mM, NaCi 50 mM, pH 10 contenant 482 µg de CT4000A ou 482 µg de CT040013. Les échantillons sont dialysés à 4° C contre trois fois 1 litre de tampon B.\nLe pourcentage de récupération en LDL, en CT040013 et en NaDoc est déterminé au terme du processus de reconstitution (figure 13).\nIl est également possible de rapporter la masse de substance incorporée par mole de LDL. Les résultats obtenus pour le CT04000A et la CT040013 sont respectivement de 0,4 et de 208 moles incorporés par mole de LDL."}, "[2]": {"test": "Stability of reconstituted LDL in presence of plasma (KBr gradient fractionation)", "type": "in vitro ADME", "settings": "1 ml de plasma humain, trois heures à 37° C", "protocol": "Dans un milieu biologique aussi complexe que le plasma, de nombreux constituants peuvent, à priori, inte) ragir avec les LDL rec. CT040013 et provoquer leur déstabilisation ou entraîner une libération du principe actif incorporé. Aussi, une première étude a été entreprise pour essayerde caractériser le comportement des LDL rec. CT040013 lorsque ces dernières sont mises en présence de plasma.\nDeux préparations ont été testées : les LDL rec. O.CHOL [^14C] et les LDL rec\" CT040013. 500 µl de ces différentes préparations sont incubées avec 1 ml de plasma humain pendant trois heures à 37° C. Au terme de cette incubation, les échantillons sont fractionnés par ultracentrifugation sur gradient discontinu en KBr. Par aspiration, on récupère les fractions correspondantes aux différentes densités, et sur chacune de celle-ci, le cholestérol, les phospholipides, l'oléate de cholestérol [^14C] sont dosés (figure 15). Le profil en cholestérol total et en phospholipides est identique dans les deux gradients. On y distingue trois pics correspondants aux trois classes de lipoprotéines, par ordre décroissant de densité : HDL, LDL, et VLDL."}, "Candida tropicalis": {"test_system": "Candida tropicalis", "test": "Intracellular infection model: J77468 macrophages infected with Candida tropicalis", "type": "cell-based", "settings": "2 % de sérum de veau foetal", "protocol": "(§1) La lignée continue de macrophages J77468 d'origine murine provient d'un clonage de la souche J774 ATCC, et est cultivée en milieu RPMI 1640 additionné de glutamine 2 mM, 10% de sérum de veau foetal (décomplémenté 60 min. à 56°) et de 10 mM Hepes (pH 7.2). Une suspension de 5 10^6 cellules/ml sont infectées avec une culture de Candida tropicalis (5 10^5 levures/ml) provenant d'une culture de nuit dans de la casitone. Le milieu d'infection utilisé est du RPMI contenant 2 % de sérum de veau nouveau-né et 10 mM Hepes (pH 7.2).\n(§2) Après 3 h d'incubation à 37° dans un mélange d'air 10 % C02, la phagocytose des levures est complète. La suspension cellulaire macrophages-Candida est centrifugée, lavée abondamment et répartie à raison de 10^5 macrophages infectés/alvéole dans des boîtes à 24 alvéoles contenant une lamelle de verre (diamètre 14 mm). Après 3 h de phagocytose (To), sur 100 macrophages, 32 contiennent de 1 à 6 Candida/macrophage, l'infection moyenne étant de 2 Candida/macrophage.\n(§3) Toutes les levures ont été phagocytées sauf rares exceptions (estimation au microscope optique après coloration au May-Grünwald Giemsa). Douze concentrations différentes des drogues de référence et des drogues encapsulées dans les LDL sont distribuées dans les boîtes contenant les macrophages infectés.\n(§4) L'évaluation de l'efficacité d'une drogue se fait à chaque concentration. Testées après 18 h d'incubation (37°, dans un mélange air-10 % C02), les levures se multiplient d'abord au sein des cellules hôtes, puis dans le milieu extracellulaire. Le taux de macrophages infectés est alors de 75 % chez les témoins. Une cellule peut contenir de 1 à plus de 20 Candida/cellule, la majorité contient de 2 à 6 levures/cellule. Le milieu de culture contient 10^8 Candida extracellulaires/ml (comptage dans une cellule de Burker).\nL'activité d'une drogue encapsulée ou non dans les LDL ou Ac-LDL par rapport à un antifongique de référence, le kétoconazole (K), est déterminé par la concentration micromolaire en drogue réduisant de 50 % le nombre de macrophages infectés par les Candida (=C150). Signalons que parallèlement à la réduction au cours du traitement, du taux de cellules infectées, le nombre de Candida par macrophage infecté diminue fortement (de 1 à 3 levures/cellule).\nLe milieu de culture est RPMI + glutamine 2 mM + Hepes 10 mM + 2 % de sérum de veau foetal."}, "C. tropicalis": {"test_system": "C. tropicalis", "test": "Extracellular infection in the infected-macrophage model", "type": "cell-based", "settings": "Candida tropicalis, read-out: CIext50^(a)", "protocol": "as §1, §2, §3, §4\nL'action des AF encapsulés sur une infection extracellulaire peut être évaluée de deux manières : d'une part en déterminant le nombre de Candida extracellulaires dans un modèle d'infection intracellulaire (voir VIII § 1.1.), d'autre part en mesurant la concentration minimale inhibitrice (CMI) de ces composés par la méthode de dilutions successives dans des boîtes à multipuits (milieu RPMI)."}},
  "note": "Read-outs that look alike come from different tables or passages of the source.",
  "data": [
    {"smiles": "CCCCCCCC/C=C\\CCCCCCCC(=O)N1CCN(c2ccc(OC[C@H]3CO[C@](Cn4ccnc4)(c4ccc(Cl)cc4Cl)O3)cc2)CC1", "note": "[KO1]", "values": [
      {"measurement": "moles incorporés par mole de LDL", "setting": "[1]", "result": "208 moles incorporés par mole de LDL"},
      {"measurement": "association à l'albumine", "setting": "[2]", "result": "il n'a pas été possible de mettre en évidence une association"},
      {"measurement": "relarguage / redistribution de la molécule incorporée en présence de plasma", "setting": "[2]", "result": "n'est pas pris en charge par ces protéines de transfert"},
      {"measurement": "CI50 K/AF", "setting": "Candida tropicalis", "result": "0,6"},
      {"measurement": "IC50", "setting": "Candida tropicalis; Candida tropicalis, Macrophage, micromolar concentration reducing infected macrophages by 50 %, 18 h, read-out: CI50 (the source's name)", "result": 85.3, "unit": "µM"},
      {"measurement": "IC50", "setting": "C. tropicalis; addition de 2 % Pl.H. (plasma humain)", "result": 50.1, "unit": "µM"},
      {"measurement": "IC50", "setting": "C. tropicalis; addition de 2 % SVF (sérum de veau foetal)", "result": 8.31, "unit": "µM"}
    ]}
  ]
}
